Results as given in US20110230447A1, “OSTEOGENESIS PROMOTER COMPRISING [4-(METHYLTHIO)PHENYLTHIO]METHANEBISPHOSPHONIC ACID OR PHARMACEUTICALLY ACCEPTABLE SALT THEREOF AS ACTIVE INGREDIENT” (Tohoku University, priority 2008, published 2011).
Entries after “also recorded” stand apart in the source; their conditions may differ.

Key:
[1] = system: MC3T3-E1 cells; assay: Alkaline phosphatase (ALP) activity in osteoblast-like MC3T3-E1 cells; type: cell-based, mouse
Procedure: FIG. 4 is an effect of MPMBP (1, 10, and 100 μM) on the osteoblast lineage cell lines MC3T3-E1 cells.
FIG. 5 is an effect of bisphosphonate ([…] bisphosphonate, namely pamidronate, incadronate, and zoledronate. Respectively, 0.1, 1, and 10 μM) on the osteoblast-like cell line MC3T3-E1 cells.
Using the mouse skull-derived osteoblast-like cell line MC3T3-E1 cells (RIKEN Bio Resource Center, CELL BANK: RCB 1126), with respect to the alkaline phosphatase (ALP) activity, known as one index of osteogenesis, and also known as the index of differentiation of osteoblast precursor cells to osteoblasts, what kind of effects MPMBP has was studied. After MC3T3-E1 cells were cultured in a α-MEM (10% bovine serum supplementation) and after the confluent was reached, under the presence or absence of MPMBP (1, 10, and 100 μM), for 6, 10, or 20 days, they were cultured in the culture plate of 48 wells. After completion of culturing, a cell homogenate was prepared, and using the method by Lowry et al (J Biochem 1954; 207: 19-37), the ALP activity (per well) was measured.

[2] = system: maxillary alveolar bone of a rabbit; assay: Local subperiosteal injection at the maxillary alveolar bone of rabbits, pQCT and μCT analysis; type: in vivo
Procedure: FIG. 2 is a proliferation of the bone induced on the maxillary alveolar bone of a rabbit resulting from local administration of MPMBP (administration of a 1 mM or 10 mM solution every 4 days for 6 times). (pQCT: peripheral Quantitative Computerized Tomography image). A horizontal section in the vicinity of the cervical site of the maxillary molar teeth. Exp: A test side (side to which MPMBP was administered), cont: a control side (side to which 0.9% NaCl was administered). Arrows represent injected sites.
FIG. 3 is a proliferation of the bone induced on the maxillary alveolar bone of a rabbit resulting from local administration of MPMBP (administration of a 1 mM or 10 mM solution every 4 days for 6 times) (μCT image: microfocus Computerized Tomography image). A forehead cut of the midline region of the right and left maxillary first molars. exp: A test side (side to which MPMBP was administered). cont: A control side (side to which 0.9% NaCl was administered).
A total of 9 Japanese male rabbits with the average weight of 2.2 kg were used and they were divided into 3 groups of 3 rabbits each. Under the periosteum of the palatal alveolar bone between the teeth of the maxillary first molar and the maxillary second molar on the left side (experiment side) of the domestic rabbits in each group, 50 μl of a 0.1, 1.0, or 10 mM MPMBP solution was injected every 4 days for 6 times (all performed under anesthesia using Nembutal). To the same sites on the opposite side (the right side), 50 μl of a physiological saline solution (0.9% NaCl solution) was injected in the same manner, and was set to be a control. On the 4th day after the final injection, the animals were euthanized with excessive administration of Nembutal, and the maxillary bone was removed and fixed with a 10% neutral formalin solution (pH 7.4). With the alveolar bone in the vicinity of drug administration sites and the palatine bone as the region of interest, 3-dimensional analysis was performed using a pQCT (peripheral Quantitative Computerized Tomography; FIG. 2) and a μCT (microfocus Computerized Tomography; FIG. 3). […] This type of the osteogenesis promoting effect of MPMBP in the living body has not been reported with the existing bisphosphonate compound.

[3] = system: calvariae (bone organ culture system of a mouse); assay: Bone organ culture system of mouse calvariae, staining and confocal laser scanning microscopy; type: cell-based; conditions: for bone resorption resulting from LPS, size of the resorption cavity: Nomarski images; for production of collagen (type I collagen fibers): MPMBP 100 μM, alendronate 2.0 μM, no heparin, vs control bone (FIG. 9); for production of the type I collagen / bone matrix: zoledronate 2.5 μM compared with MPMBP, presence or absence of LPS (FIG. 8)
Procedure: Using the bone organ culture system, what kind of effects MPMBP has on production of the bone matrix was studied. From 3-6 day old mice, calvariae were collected aseptically. These were cultured using the Stern and Krieger method (Calcif Tissue hit 1983; 35: 172-17) with DMEM (10% bovine serum supplementation, no supplementation of heparin, supplementation or no supplementation of LPS 10 μg/ml) for 48 hours. After completion of culturing, with the method described by Suzuki, Takeyama et al (J Histochem Cytochem 2005; 53: 1525-1537), a double staining of the type I collagen and alkaline phosphatase (FIG. 6 and FIG. 8), a double staining of the type I collagen and alizarin red (FIG. 7), and an immunohistochemical staining using the type I collagen (FIG. 9) were performed, and using a confocal laser scanning microscope, they were observed.
The upper panels are Nomarski differential interference contrast images of the bone surface. The middle panels are images of the bone surface after the double staining of the type I collagen and alkaline phosphatase was performed, and the lower panels are images of the bone section after the double staining of the type I collagen and alkaline phosphatase was performed, respectively. Using rhodamine for the type I collagen, red color could be observed, and using a substrate (ELF-97) that fluoresces when dephosphorylated for alkaline phosphatase (stain osteoblasts), the enzyme activity could be observed in green color.
The upper panels are Nomarski differential interference contrast images of the bone surface. […] The lower panels are images of the bone section after the double staining of the type I collagen and alizarin red was performed, and the collagen fibers could be observed in green color resulting from Alexa Fluor-488 and the bone mineral could be observed in red color resulting from alizarin red.
After the immunological double staining of the type I collagen and alkaline phosphatase was performed, as was the case with FIG. 6, using Alexa Fluor 594 for the type I collagen, it was stained in red color, and using the substrate (ELF-97) that fluoresces when dephosphorylated for alkaline phosphatase (osteoblasts), the enzyme activity was stained in green color. The upper panels are observation images of the bone surface and the lower panels are images of the bone section.

[4] = system: MC3T3-E1 cells; assay: Expression of osteogenesis-related genes in MC3T3-E1 cells by real-time RT-PCR; type: cell-based, mouse
Excerpt: As an experiment to clarify the mechanism of the osteogenesis promoting action of MPMBP, using the osteoblast-based cell line MC3T3-E1 cells, the effect on expression of osteogenesis-related genes was studied using the real-time RT-PCR method. Moreover, the effect was compared with the action of zoledronate.
In the experiment, the osteoblast-based cell line MC3T3-E1 cells that reached the confluent after cultured with α-MEM (10% bovine serum supplementation) were used. For 3 days, they were cultured (used a dish with the diameter of 60 mm) under the presence of MPMBP (1, 10, or 100 μM) or zoledronate (0.1, 0.5 or 2.00 μM). After completion of culturing, cells were scraped and using Trizol, RNA was extracted. From 5 μg of RNA, cDNA was synthesized, specific primers were set with respect to alkaline phosphatase, the type I-α collagen, osteocalcin, and bone sialoprotein genes, PCR amplification was performed in the thermal cycler, and the amount of expression of the above genes was measured.

[5] = 1, 10 and 100 μM, cultured 6, 10 or 20 days (FIG. 4)
[6] = 50 μl of 1.0 mM or 10 mM solution under the periosteum every 4 days for 6 times, vs 0.9% NaCl on the opposite side
[7] = 0.1, 1 and 10 μM, culture up to 3 weeks (FIG. 5)

With `O=P(O)(O)C(Cl)(Cl)P(=O)(O)O` [clodronate] the “ALP activity (per well)” value [1, 5] was “increase an alkaline phosphatase activity in a dose-dependent manner and with time; also recorded: increased the ALP activity”.
`CSc1ccc(SC(P(=O)([O-])[O-])P(=O)(O)O)cc1.[Na+].[Na+]` [MPMBP, [4-(methylthio)phenylthio]-methanebisphosphonic acid.disodium salt] was tested, and the “bone changes (osteogenesis promoting effect) in the 0.1 mM group” value ([2]; 0.1 mM, 50 μl every 4 days for 6 times) was “the effect was not clear”, the “bone changes, 10 mM group compared to 1.0 mM group” value ([2]; 10 mM vs 1.0 mM, 50 μl every 4 days for 6 times) was “stronger for the 10 mM administration group” and the “bone addition to the palatal side of the alveolar bone (proliferation of the alveolar bone), pQCT” value [2, 6] was “a proliferation of the alveolar bone is observed; also recorded: bone addition to the palatal side of the alveolar bones”. For the same compound, the “thickness of the palatine bone from the alveolar site to the middle of the palate, μCT” value [2, 6] was “the thickness of the palatine bone is increasing; also recorded: the thickness of the palatine bone increased”, the “ALP activity (per well)” value [1, 5] was “increase an alkaline phosphatase activity in a dose-dependent manner and with time; also recorded: increased the ALP activity in a dose-dependent manner and with time” and the “bone resorption resulting from LPS, size of the resorption cavity” value ([3]; 48 hours, LPS, vs control bone (FIG. 7)) was “the bone resorption was inhibited resulting from LPS and the size of the resorption cavity that was formed from LPS was significantly smaller; also recorded: the bone resorption was inhibited resulting from LPS and the size of the resorption cavity that was formed by LPS was significantly small”. The “production of the bone matrix (type I collagen, Alexa Fluor-488)” value ([3]; 48 hours, presence or absence of LPS, vs control bone (FIG. 7)) was “production of the bone matrix (sites in green color) was promoted significantly; also recorded: production of the bone matrix (sites in green color) significantly increased”, the “thickness of the bone mineral (alizarin red)” value ([3]; 48 hours, vs control bone (FIG. 7)) was “the thickness of the bone mineral (sites in red color) was thick” and the “production of the bone matrix (type I collagen)” value ([3]; MPMBP 25 μM, 48 hours, DMEM, presence or absence of LPS 10 μg/ml, vs control bone (FIG. 6)) was “production of the bone matrix (sites in red color) was promoted significantly; also recorded: production of the bone matrix (type I collagen: sites in red) significantly increased”. The “bone resorption resulting from LPS, size of the resorption cavity” value ([3]; MPMBP 25 μM, 48 hours, LPS 10 μg/ml, vs control bone (FIG. 6)) was “the bone resorption was inhibited resulting from LPS and the size of a resorption cavity that was formed from LPS was significantly smaller; also recorded: the bone resorption was inhibited resulting from LPS and the size of the resorption cavity that was formed by LPS was significantly small”, the “production of collagen (type I collagen fibers)” value ([3]; 48 hours) was “a large amount of thick collagen fibers was produced in a fascicular shape and the bone surface was densely covered” and the “concentration indicating the same level of the inhibitory action of the bone resorption in the bone organ culture system” value ([3]; bone organ culture system) was 100 µM. The “production of the type I collagen / bone matrix” value ([3]; 48 hours) was “significantly promoted production of the bone matrix; also recorded: significantly increased production of the bone matrix” and the “expression of alkaline phosphatase, type I-α collagen, osteocalcin and bone sialoprotein genes” value ([4]; MPMBP 100 μM (1, 10, 100 μM tested), 3 days (72 hours) (FIG. 10)) was “promoted gene expression of all of the above; also recorded: increased significantly in all genes”.
In the case of `O=P(O)(O)C(O)(Cn1ccnc1)P(=O)(O)O` [zoledronate, reference compound], the “ALP activity (per well)” value [1, 7] was “the alkaline phosphatase activity is inhibited or the alkaline phosphatase activity is not affected; also recorded: the ALP activity was significantly reduced in high concentration”, the “production of the type I collagen / bone matrix” value ([3]; 48 hours) was “inhibited production of the type I collagen” and the “expression of alkaline phosphatase, type I-α collagen, osteocalcin and bone sialoprotein genes” value ([4]; zoledronate 0.1, 0.5 or 2.00 μM, 3 days (FIG. 11)) was “no significant change was caused to the amount of expression of these genes”. For the same compound, the “expression of alkaline phosphatase, type I-α collagen, osteocalcin and bone sialoprotein genes” value ([4]; zoledronate 0.1, 0.5 or 2.00 μM, 3 days (FIG. 11), listed as Zoledronate) was “did not significantly affect gene expression of all of the above”.
With `O=P(O)(O)C(NC1CCCCCC1)P(=O)(O)O` [incadronate] the “ALP activity (per well)” value [1, 7] was “the alkaline phosphatase activity is inhibited or the alkaline phosphatase activity is not affected; also recorded: the ALP activity was significantly reduced in high concentration”.
`NCCC(O)(P(=O)(O)O)P(=O)(O)O` [pamidronate] was tested, and the “ALP activity (per well)” value [1, 7] was “the alkaline phosphatase activity is inhibited or the alkaline phosphatase activity is not affected; also recorded: no significant change was observed”.
For `NCCCC(O)(P(=O)(O)O)P(=O)(O)O` [alendronate, reference compound], the “production of collagen (type I collagen fibers)” value ([3]; 48 hours) was “production of the collagen increased were observed; however, the degree was small, compared to MPMBP”.
